In patent publication US9790209B2, “Kinase inhibitors” (Respivert Limited, priority 2012, dated 2017):

Key:
[1] = test system: TNBS-induced colitis in mice; experiment: TNBS-induced colitis in mice; assay type: in vivo; set-up: Ulcer grade / LP inflammation: scale not given here; details: Experiment 1, 2.5 mg/kg oral BID, 2 days
Protocol: On Day 0 of the study TNBS (200 μL) is administered intra-colonically via a plastic catheter followed by BID dosing of the vehicle, reference or test compound for 2 or 4 days. During the study animals are weighed every day and stool observations are made and recorded as a score, based on stool consistency. At the time of sacrifice on Day 2 (or Day 4) the large intestine is removed and the length and weight recorded. Sections of the colon are taken for either MPO analysis to determine neutrophil infiltration or for histopathology involving scoring to determine disease severity.

PBMCs [2] = experiment: LPS-induced TNFα/IL-8 release in PBMC cells; assay type: cell-based; details: Homo sapiens, LPS-stimulated PBMCs, IL-8, read-out: IC50 Values for Inhibition of Cytokine Release PBMCs IL-8
Protocol: Peripheral blood mononuclear cells (PBMCs) from healthy subjects are separated from whole blood using a density gradient (Lymphoprep, Axis-Shield Healthcare). The PBMCs are seeded in 96 well plates and treated with compounds at the desired concentration for 2 hours before addition of 1 ng/mL LPS (Escherichia Coli 0111:B4 from Sigma Aldrich) for 24 hours under normal tissue culture conditions (37° C., 5% CO2). The supernatant is harvested for determination of IL-8 and TNFα concentrations by sandwich ELISA (Duo-set, R&D systems) and read on the fluorescence microplate reader (Varioskan® Flash, ThermoFisher Scientific). The concentration at 50% inhibition (IC50) of IL-8 and TNFα production is calculated from the dose response curve.

GSK3α = GSK3α (Homo sapiens (Human), UniProt P49840); experiment: GSK 3α enzyme inhibition (Method 2), Z-LYTE FRET; assay type: biochemical
Protocol: (§1) The enzyme inhibitory activities of compounds disclosed herein are determined by FRET using synthetic peptides labelled with both donor and acceptor fluorophores (Z-LYTE, Invitrogen Ltd., Paisley, UK).
The inhibitory activities of compounds of the invention against the GSK 3α enzyme isoform (Invitrogen), are evaluated by determining the level of activation/phosphorylation of the target peptide. The GSK3-α protein (500 ng/mL, 2.5 μL) is mixed with the test compound (2.5 μL at either 4 μg/mL, 0.4 μg/mL, 0.04 μg/mL, or 0.004 μg/mL) for 2 hr at RT. The FRET peptide (8 μM, 2.5 μL), which is a phosphorylation target for GSK3α, and ATP (40 μM, 2.5 μL) are then added to the enzyme/compound mixture and the resulting mixture incubated for 1 hr. Development reagent (protease, 5 μL) is added for 1 hr prior to detection in a fluorescence microplate reader (Varioskan® Flash, ThermoFisher Scientific).
(§2) In all cases, the site-specific protease cleaves non-phosphorylated peptide only and eliminates the FRET signal. Phosphorylation levels of each reaction are calculated using the ratio of coumarin emission (donor) over fluorescein emission (acceptor), for which high ratios indicate high phosphorylation and low ratios indicate low phosphorylation levels. The percentage inhibition of each reaction is calculated relative to non-inhibited control and the 50% inhibitory concentration (IC50 value) is then calculated from the concentration-response curve.
This method follows the same steps as Method 1 above, but utilises a shorter period of mixing of the test compound (105 minutes instead of 2 hours) with the GSK3-α protein.

p38 MAPKα = p38 MAPKα (Homo sapiens (Human), UniProt Q16539); experiment: p38 MAPKα enzyme inhibition (Method 2), Z-LYTE FRET; assay type: biochemical
Protocol: as §1
The inhibitory activities of test compounds against the p38 MAPKα isoform (MAPK14: Invitrogen), are evaluated indirectly by determining the level of activation/phosphorylation of the down-stream molecule, MAPKAP-K2. The p38 MAPKα protein (80 ng/mL, 2.5 μL) is mixed with the test compound (2.5 μL of either 4 μg/mL, 0.4 μg/mL, 0.04 μg/mL or 0.004 μg/mL) for 2 hr at RT. […] The mixture is incubated for 1 hr at RT. Development reagent (protease, […]) is added for 1 hr prior to detection in a fluorescence microplate reader (Varioskan® Flash, ThermoFisher Scientific).
This method follows the same steps as Method 1 above, but utilises a higher concentration of the p38 MAPKα protein (2.5 μL of 200 ng/mL protein instead of 2.5 μL of 80 ng/mL protein) for mixing with the test compound.
as §2

Syk = Syk (Homo sapiens (Human), UniProt P43405); experiment: Syk enzyme inhibition, Z-LYTE FRET; assay type: biochemical
Protocol: as §1
(§3) The inhibitory activities of compounds of the invention against c-Src and Syk enzymes (Invitrogen), are evaluated in a similar fashion to that described hereinabove. The relevant enzyme (3000 ng/mL or 2000 ng/mL respectively, 2.5 μL) is incubated with the test compound (either 4 μg/mL, 0.4 μg/mL, 0.04 μg/mL, or 0.004 μg/mL, 2.5 μL each) for 2 hr at RT. The FRET peptides (8 μM. 2.5 μL), and appropriate ATP solutions (2.5 μL, 800 μM for c-Src, and 60 μM ATP for Syk) are then added to the enzymes/compound mixtures and incubated for 1 hr. Development reagent (protease, 5 μL) is added for 1 hr prior to detection in a fluorescence microplate reader (Varioskan® Flash, ThermoFisher Scientific).
as §2

c-Src = c-Src (Homo sapiens (Human), UniProt P12931); experiment: c-Src enzyme inhibition, Z-LYTE FRET; assay type: biochemical
Protocol: as §1, §3, §2

PBMCs [3] = experiment: IL-2 and IFN gamma release in CD3/CD28 stimulated PBMC cells; assay type: cell-based; details: Homo sapiens
Protocol: PBMCs from healthy subjects are separated from whole blood using a density gradient (Lymphoprep, Axis-Shield Healthcare). Cells are added to a 96 well plate pre-coated with a mixture of CD3/CD38 monoclonal antibodies (0.3 μg/mL eBioscience and 3 μg/mL BD Pharmingen respectively). Compound at the desired concentration is then added to the wells and the plate left for 3 days under normal tissue culture conditions. Supernatants are harvested and IL-2 and IFN gamma release determined by Sandwich ELISA (Duo-set, R&D System). The IC50 is determined from the dose response curve.

[4] = IL-2, read-out: IC50 Values for Inhibition of Cytokine Release PBMCs IL-2

Sequence of p38 MAPKα (Q16539 whole entry): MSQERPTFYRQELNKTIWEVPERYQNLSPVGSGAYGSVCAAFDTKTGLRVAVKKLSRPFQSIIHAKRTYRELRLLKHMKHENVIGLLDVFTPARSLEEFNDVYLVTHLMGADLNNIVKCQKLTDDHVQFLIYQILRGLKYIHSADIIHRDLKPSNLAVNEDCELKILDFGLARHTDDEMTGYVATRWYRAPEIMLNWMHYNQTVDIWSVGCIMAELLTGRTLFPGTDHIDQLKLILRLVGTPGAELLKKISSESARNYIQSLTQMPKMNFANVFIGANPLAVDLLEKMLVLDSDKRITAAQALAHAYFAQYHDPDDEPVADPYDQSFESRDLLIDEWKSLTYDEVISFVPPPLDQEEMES
Sequence of GSK3α (P49840 whole entry): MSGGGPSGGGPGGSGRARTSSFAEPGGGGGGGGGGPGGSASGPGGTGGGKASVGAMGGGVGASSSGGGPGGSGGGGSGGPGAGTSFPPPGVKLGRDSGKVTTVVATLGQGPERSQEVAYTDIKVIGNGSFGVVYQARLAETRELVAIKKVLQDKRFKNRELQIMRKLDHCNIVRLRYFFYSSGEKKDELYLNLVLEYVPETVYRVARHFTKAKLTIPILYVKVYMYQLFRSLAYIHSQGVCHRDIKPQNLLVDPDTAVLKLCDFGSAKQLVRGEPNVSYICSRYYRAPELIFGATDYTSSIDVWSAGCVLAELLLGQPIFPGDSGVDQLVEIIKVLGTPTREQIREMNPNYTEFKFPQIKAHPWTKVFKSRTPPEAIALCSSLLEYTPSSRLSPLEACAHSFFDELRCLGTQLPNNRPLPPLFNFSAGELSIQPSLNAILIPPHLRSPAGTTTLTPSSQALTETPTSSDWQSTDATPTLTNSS
Sequence of c-Src (P12931 whole entry, looked up): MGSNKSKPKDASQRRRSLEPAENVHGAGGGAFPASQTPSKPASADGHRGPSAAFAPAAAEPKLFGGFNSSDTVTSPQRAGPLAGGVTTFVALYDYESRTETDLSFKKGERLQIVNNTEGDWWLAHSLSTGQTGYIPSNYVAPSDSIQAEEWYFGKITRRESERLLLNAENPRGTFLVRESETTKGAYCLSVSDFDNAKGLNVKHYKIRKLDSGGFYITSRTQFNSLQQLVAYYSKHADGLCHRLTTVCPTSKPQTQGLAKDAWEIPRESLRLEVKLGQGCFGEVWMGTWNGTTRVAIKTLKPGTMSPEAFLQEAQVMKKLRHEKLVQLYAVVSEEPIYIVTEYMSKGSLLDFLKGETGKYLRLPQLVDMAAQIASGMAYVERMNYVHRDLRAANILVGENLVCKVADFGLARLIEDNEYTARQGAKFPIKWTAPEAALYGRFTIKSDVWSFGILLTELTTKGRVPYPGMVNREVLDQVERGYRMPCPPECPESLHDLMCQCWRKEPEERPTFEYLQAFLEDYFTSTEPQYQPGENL

Row | Structure (SMILES) | IC50 (PBMCs [2]) [nM] | IC50 (GSK3α) [nM] | other results
1 | CCCC1O[C@@H]2C[C@H]3[C@@H]4CCC5=CC(=O)C=C[C@]5(C)[C@H]4[C@@H](O)C[C@]3(C)[C@]2(C(=O)CO)O1 (stereo partly shown) [Budesonide, reference compound] | – | – | LP inflammation ([1]; TNBS + Vehicle 3.9 ± 0.3): 2.5 ± 0.4; Ulcer grade ([1]; TNBS + Vehicle 4.0 ± 0.5): 2.9 ± 0.6
2 | C#CC(C)(C)c1cc(NC(=O)Nc2ccc(Oc3ccnc(Nc4cc(OC)cc(C(=O)NCCN5CCOCC5)c4)n3)c3ccccc23)n(-c2ccc(C)cc2)n1 [Example 4, 3-Methoxy-5-((4-((4-(3-(3-(2-methylbut-3-yn-2-yl)-1-(p-tolyl)-1H-pyrazol-5-yl)ureido)-naphthalen-1-yl)oxy)pyrimidin-2-yl)amino)-N-(2-morpholinoethyl)benzamide] | 0.5 | 539 | –
3 | C#CC(C)(C)c1cc(NC(=O)Nc2ccc(Oc3ccnc(Nc4cccc(OCCN5CCOCC5)c4)n3)c3ccccc23)n(-c2ccc(C)cc2)n1 [Example 5, 1-(3-(2-Methylbut-3-yn-2-yl)-1-(p-tolyl)-1H-pyrazol-5-yl)-3-(4-((2-((3-(2-morpholinoethoxy)phenyl)amino)pyrimidin-4-yl)oxy)naphthalen-1-yl)urea] | 1 | 602 | –
4 | C#CC(C)(C)c1cc(NC(=O)Nc2ccc(Oc3ccnc(Nc4cccc(OCCN(C)C)c4)n3)c3ccccc23)n(-c2ccc(C)cc2)n1 [Example 6, 1-(4-((2-((3-(2-(Dimethylamino)ethoxy)phenyl)amino)pyrimidin-4-yl)oxy)naphthalen-1-yl)-3-(3-(2-methylbut-3-yn-2-yl)-1-(p-tolyl)-1H-pyrazol-5-yl)urea] | 0.6 | 243 | –
5 | C#CC(C)(C)c1cc(NC(=O)Nc2ccc(Oc3ccnc(Nc4ccccc4)c3)c3ccccc23)n(-c2ccc(C)cc2)n1 [Example 7, 1-(3-(2-Methylbut-3-yn-2-yl)-1-(p-tolyl)-1H-pyrazol-5-yl)-3-(4-((2-(phenylamino)pyridin-4-yl)oxy)naphthalen-1-yl)urea] | 4 | > 10000 | IC50 (p38 MAPKα): 271 nM; IC50 (Syk): 185 nM; IC50 (c-Src): 81 nM; IC50 (PBMCs [3]; IFNγ, read-out: IC50 Values for Inhibition of Cytokine Release PBMCs IFNγ): 21.8 nM; IC50 (PBMCs [3]; [4]): 139 nM
6 | C#CC(C)(C)c1cc(NC(=O)Nc2ccc(Oc3ccnc(Nc4cc(OC)cc(OCCN5CCOCC5)c4)n3)c3ccccc23)n(-c2ccc(C)cc2)n1 [Example 8, 1-(4-((2-((3-Methoxy-5-(2-morpholinoethoxy)phenyl)amino)pyrimidin-4-yl)oxy)-naphthalen-1-yl)-3-(3-(2-methylbut-3-yn-2-yl)-1-(p-tolyl)-1H-pyrazol-5-yl)urea] | 1.4 | 2570 | IC50 (Syk): 31 nM; IC50 (c-Src): 22 nM
7 | C#CC(C)(C)c1cc(NC(=O)Nc2ccc(Oc3ccnc(Nc4cc(C)c5[nH]ncc5c4)n3)c(Cl)c2Cl)n(-c2ccc(C)cc2)n1 [Example 9, 1-(2,3-Dichloro-4-((2-((7-methyl-1H-indazol-5-yl)amino)pyrimidin-4-yl)oxy)phenyl)-3-(3-(2-methylbut-3-yn-2-yl)-1-(p-tolyl)-1H-pyrazol-5-yl)urea] | 7.6 | > 10000 | –
8 | C#CC(C)(C)c1cc(NC(=O)Nc2ccc(Oc3ccnc(Nc4cccc(OCCN(C)C)n4)n3)c3ccccc23)n(-c2ccc(C)cc2)n1 [Example 10, 1-(4-((2-((6-(2-(Dimethylamino)ethoxy)pyridin-2-yl)amino)pyrimidin-4-yl)oxy)naphthalen-1-yl)-3-(3-(2-methylbut-3-yn-2-yl)-1-(p-tolyl)-1H-pyrazol-5-yl)urea] | 1.7 | 1760 | IC50 (p38 MAPKα): 46 nM; IC50 (PBMCs [3]; [4]): 7.1 nM
9 | C#CC(C)(C)c1cc(NC(=O)Nc2ccc(Oc3ccnc(Nc4cc(OCCN(C)C)ccn4)n3)c3ccccc23)n(-c2ccc(C)cc2)n1 [Example 11, 1-(4-((2-((4-(2-(Dimethylamino)ethoxy)pyridin-2-yl)amino)pyrimidin-4-yl)oxy)naphthalen-1-yl)-3-(3-(2-methylbut-3-yn-2-yl)-1-(p-tolyl)-1H-pyrazol-5-yl)urea] | 10.8 | > 10000 | –
10 | C#CC(C)(C)c1cc(NC(=O)Nc2ccc(Oc3ccnc(Nc4cccc(OCCN5CCOCC5)n4)n3)c3ccccc23)n(-c2ccc(C)cc2)n1 [Example 16, 1-(3-(2-Methylbut-3-yn-2-yl)-1-(p-tolyl)-1H-pyrazol-5-yl)-3-(4-((2-((6-(2-morpholinoethoxy)pyridin-2-yl)amino)pyrimidin-4-yl)oxy)naphthalen-1-yl)urea] | 17.7 | > 10000 | IC50 (p38 MAPKα): 148 nM; IC50 (Syk): 348 nM; IC50 (c-Src): 21 nM
11 | C#CC(C)(C)c1cc(NC(=O)Nc2ccc(Oc3ccnc(Nc4cccc(OCCOCCOCCOC)n4)n3)c3ccccc23)n(-c2ccc(C)cc2)n1 [Example 17, 1-(4-((2-((6-(2-(2-(2-Methoxyethoxy)ethoxy)ethoxy)pyridin-2-yl)amino)pyrimidin-4-yl)oxy)naphthalen-1-yl)-3-(3-(2-methylbut-3-yn-2-yl)-1-(p-tolyl)-1H-pyrazol-5-yl)urea] | 30.4 | > 10000 | –
